Data on six compounds can be found in ChEMBL document CHEMBL1141395, “2-(S)-phenethylaminothiazolones as potent, orally efficacious inhibitors of 11beta-hydroxysteriod dehydrogenase type 1” (J Med Chem, 2007).

The nature of series [1]: Clearance in Sprague-Dawley rat at 2 mg/kg, iv. In kind it is ADME, organism-based. Also on record: dose 2 mg/kg, route intravenous. Conditions: in vivo.
Series [2] in a line: Volume of distribution in Sprague-Dawley rat at 2 mg/kg, iv. In kind it is ADME, organism-based. On the set-up: dose 2 mg/kg, route intravenous. The note with it: in vivo, read-out: Vss.
The nature of series [3]: Oral bioavailability in Sprague-Dawley rat at 10 mg/kg, po. In kind it is ADME, organism-based. The note with it: in vivo.
Series [4] can be described thus: Cmax in Sprague-Dawley rat at 10 mg/kg, po. In kind it is ADME, organism-based. Also on record: dose 10 mg/kg, route oral. The note with it: in vivo.
In series [5] the target is T1, 11-beta-hydroxysteroid dehydrogenase 1 (Homo sapiens, UniProt P28845).
T1 sequence (P28845 whole entry): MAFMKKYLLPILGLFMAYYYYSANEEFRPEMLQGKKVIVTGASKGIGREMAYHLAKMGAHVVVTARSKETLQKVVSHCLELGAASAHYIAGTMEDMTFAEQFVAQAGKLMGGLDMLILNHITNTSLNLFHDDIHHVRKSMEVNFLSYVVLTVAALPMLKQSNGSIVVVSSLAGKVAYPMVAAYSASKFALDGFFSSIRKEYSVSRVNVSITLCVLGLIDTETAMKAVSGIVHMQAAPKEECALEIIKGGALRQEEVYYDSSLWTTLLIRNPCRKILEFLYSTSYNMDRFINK
Description: Displacement of [3H]cortisone from human recombinant 11beta-HSD1 by SPA
Series [6] deals with T1, 11-beta-hydroxysteroid dehydrogenase 1. This is another data set of the same source.
Description: Inhibition of human 11beta-HSD1 over expressed in CHO cells by whole cell assay
In series [7] the target is 11-beta-hydroxysteroid dehydrogenase 1 (Mus musculus) (UniProt P50172). Kind of series: Reduction of 11beta-HSD1 activity in C57/B16 mouse at 30 mg/kg, po after 2 hrs. In kind it is organism-based. Also on record: dose 30 mg/kg; scale not given: the % may be the effect or the level left.
11-beta-hydroxysteroid dehydrogenase 1 (Mus musculus), sequence (P50172 whole entry, looked up): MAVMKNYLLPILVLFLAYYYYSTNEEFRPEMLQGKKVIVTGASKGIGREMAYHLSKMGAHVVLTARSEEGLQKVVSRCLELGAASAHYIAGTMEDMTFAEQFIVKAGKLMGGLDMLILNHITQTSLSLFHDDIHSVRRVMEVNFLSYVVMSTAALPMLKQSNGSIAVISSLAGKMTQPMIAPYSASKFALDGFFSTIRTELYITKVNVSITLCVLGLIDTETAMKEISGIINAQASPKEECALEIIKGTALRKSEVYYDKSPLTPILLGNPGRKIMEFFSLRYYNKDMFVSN
Series [8] has as its target 11-beta-hydroxysteroid dehydrogenase type 2 (Homo sapiens, UniProt P80365). In words: Inhibition of human 11beta-HSD2.
The nature of series [9]: Drug level in adipose in C57/B16 mouse at 30 mg/kg, po after 2 hrs. The note with it: read-out: Drug uptake. In kind it is ADME, organism-based. On the set-up: dose 30 mg/kg, route oral.
Series [10] can be described thus: Drug level in C57/B16 mouse plasma at 30 mg/kg, po after 6 hrs. Format: ADME, organism-based. Also on record: dose 30 mg/kg, route oral.
The target of series [11] is 11-beta-hydroxysteroid dehydrogenase 1 (Mus musculus) (UniProt P50172). Kind of series: Reduction of 11beta-HSD1 activity in C57/B16 mouse at 30 mg/kg, po after 6 hrs. In kind it is organism-based. On the set-up: dose 30 mg/kg; scale not given: the % may be the effect or the level left.
Series [12] is described as follows: Drug level in C57/B16 mouse plasma at 30 mg/kg, po after 2 hrs. In kind it is ADME, organism-based. Also on record: dose 30 mg/kg, route oral.
Series [13] concerns the target 11-beta-hydroxysteroid dehydrogenase 1 (Mus musculus, UniProt P50172). In words: Inhibition of murine 11beta-HSD1.
The target of another series is T2, Glucocorticoid receptor (Homo sapiens, UniProt P04150).
T2 sequence (P04150 whole entry): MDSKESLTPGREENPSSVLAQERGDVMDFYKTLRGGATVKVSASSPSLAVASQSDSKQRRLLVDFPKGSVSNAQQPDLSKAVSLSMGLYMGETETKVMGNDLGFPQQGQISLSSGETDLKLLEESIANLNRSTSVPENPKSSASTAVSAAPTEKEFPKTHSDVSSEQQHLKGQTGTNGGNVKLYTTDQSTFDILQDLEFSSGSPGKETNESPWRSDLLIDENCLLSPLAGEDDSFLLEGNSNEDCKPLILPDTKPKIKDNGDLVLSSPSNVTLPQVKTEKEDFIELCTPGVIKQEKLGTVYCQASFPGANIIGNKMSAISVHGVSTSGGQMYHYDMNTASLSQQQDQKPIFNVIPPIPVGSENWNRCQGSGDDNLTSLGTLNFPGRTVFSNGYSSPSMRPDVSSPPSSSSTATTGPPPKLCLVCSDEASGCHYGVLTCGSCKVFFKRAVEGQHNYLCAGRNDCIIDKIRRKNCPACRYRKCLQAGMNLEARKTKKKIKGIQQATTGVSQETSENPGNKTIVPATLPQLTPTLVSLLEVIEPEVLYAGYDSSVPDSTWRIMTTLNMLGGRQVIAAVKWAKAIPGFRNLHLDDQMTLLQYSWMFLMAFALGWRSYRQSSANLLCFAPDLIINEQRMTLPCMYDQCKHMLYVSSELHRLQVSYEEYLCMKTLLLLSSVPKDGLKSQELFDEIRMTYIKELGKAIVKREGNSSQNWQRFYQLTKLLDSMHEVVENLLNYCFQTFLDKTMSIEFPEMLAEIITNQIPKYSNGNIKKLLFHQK
In words: Inhibition of glucocorticoid receptor.

Series [14] in a line: Drug level in adipose in C57/B16 mouse at 30 mg/kg, po after 6 hrs. In kind it is ADME, organism-based. Conditions: read-out: Drug uptake. Also on record: dose 30 mg/kg, route oral.

Where only a bound is given, the exact number is not on record here.

11-beta-hydroxysteroid dehydrogenase type 2, sequence (P80365 whole entry, looked up): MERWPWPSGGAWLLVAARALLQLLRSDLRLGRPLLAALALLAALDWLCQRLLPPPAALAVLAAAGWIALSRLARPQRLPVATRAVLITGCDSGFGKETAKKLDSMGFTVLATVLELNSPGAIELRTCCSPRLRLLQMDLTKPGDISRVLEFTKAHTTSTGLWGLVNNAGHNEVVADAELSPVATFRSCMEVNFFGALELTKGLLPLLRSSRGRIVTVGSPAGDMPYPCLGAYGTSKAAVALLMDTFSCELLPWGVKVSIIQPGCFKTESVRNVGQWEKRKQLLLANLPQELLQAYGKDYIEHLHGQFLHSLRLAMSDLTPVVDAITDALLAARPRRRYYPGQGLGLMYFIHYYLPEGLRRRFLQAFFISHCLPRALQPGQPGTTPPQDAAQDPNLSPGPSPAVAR
11-beta-hydroxysteroid dehydrogenase 1 (Mus musculus, UniProt P50172), sequence (P50172 whole entry): as the sequence (P50172 whole entry, looked up) above

As a reminder, the clearance is the rate of elimination divided by the concentration. A word on the bioavailability: it is the share of a dose that reaches the circulation, judged against a reference dose that is usually intravenous. By Cmax is commonly meant the maximum level reached in the sampled fluid or tissue. With `CC(C)[C@]1(C)SC(N[C@@H](C)c2ccccc2F)=NC1=O`, in series [1], the clearance was 42.8 mL/min/kg. For the same compound, the Vd in series [2] turned out to be 5.73 L/kg. In addition, in [3], the bioavailability is 20%. The compound also displayed a Cmax in series [4] of 176 ng/mL.

Broadly, the Ki is the equilibrium dissociation constant of an inhibitor or competing ligand from its target. In general, IC50 refers to the midpoint of a concentration-inhibition curve. In turn, `C[C@H](NC1=NC(=O)[C@](C)(C(F)(F)F)S1)c1ccccc1F` had a clearance in [1] of 9.6 mL/min/kg. The compound further registered a Ki in [5] of 48 nM. In series [6], this compound gave an IC50 of 96 nM. In series [2], the Vd came out at 1.66 L/kg. This compound also registered a bioavailability in series [3] of 50%. The highest level in series [4] (Cmax) was 1230 ng/mL.

As to `C[C@H](NC1=NC(=O)[C@@](C)(C(F)(F)F)S1)c1ccccc1F`, the clearance in [1] was 3.13 mL/min/kg. Also, the Activity in series [7] came to 88%; in series [11] it was 91%. Further, the IC50 in [8] was more than 10000 nM; in series [6], 33 nM; against Glucocorticoid receptor it was more than 50000 nM. Also, the Ki in series [5] stood at 22 nM; in series [13], 130 nM. Further, the concentration at 2 h in series [9] was 234 µM; in [12], 55 µM. Moreover, the concentration at 6 h in series [10] turned out to be 35 µM; in series [14], 113 µM. Moreover, the Vd in series [2] is 1.2 L/kg. Moreover, the bioavailability in series [3] was determined as 75%. Moreover, in series [4], the concentration peaked (Cmax) at 4630 ng/mL.

The compound `C[C@H](NC1=NC(=O)C(C)(C(F)(F)F)S1)c1ccccc1F` (some centres not stated) gave a clearance in series [1] of 8.35 mL/min/kg. Also, in series [5], the Ki is 20 nM. Further, inhibition in series [6] was half-maximal at 56 nM (IC50). The Vd in series [2] is 2.98 L/kg. In addition, in series [3], the bioavailability worked out at 55%. In addition, in series [4], the Cmax amounted to 1040 ng/mL.

Take `C[C@H](NC1=NC(=O)C(C)(C(C)(C)F)S1)c1ccccc1F` (some centres not stated): the clearance in series [1] was 14.8 mL/min/kg. Besides, the Vd in [2] was determined as 1.66 L/kg. The bioavailability in [3] turned out to be 47%. The same compound showed a Cmax in series [4] of 1080 ng/mL.

`CC(C)C1(C)SC(NCc2ccccc2)=NC1=O` (configuration not stated) came in with a Ki in series [5] of 65 nM. Moreover, it took 53 nM to reach half-maximal inhibition in [6] (IC50).
